According to US10336763B1, “Crystal form B of ribociclib succinate” (Chunghwa Chemical Synthesis & Biotech Co. Ltd., priority 2018, dated 2019):

Assay: crystalline stability in constant temperature and humidity chamber
Type: physicochemical
[1] = 25° C./75% RH, summary of 1 to 7 days
[2] = 80° C./75% RH, summary of 1 to 7 days
[3] = powder exposed to 25° C., 75%RH, 1 day
[4] = powder exposed to 25° C., 75%RH, 3 days
[5] = powder exposed to 25° C., 75%RH, 7 days
[6] = powder exposed to 80° C., 75%RH, 1 day
[7] = powder exposed to 80° C., 75%RH, 3 days
[8] = powder exposed to 80° C., 75%RH, 7 days

CN(C)C(=O)c1cc2cnc(Nc3ccc(N4CCNCC4)cn3)nc2n1C1CCCC1.O=C(O)CCC(=O)O [Ribociclib succinate in crystalline form A] [butanedioicacid-7-cyclopentyl-N,N-dimethyl-2-[(5-piperazin-1-ylpyridin-2-yl)amino]pyrrolo[2,3-D]pyrimidine-6-carboxamide]
crystalline form (crystalline stability) [1]: maintained its crystalline form | crystalline form (crystalline stability) [2]: transformed from crystalline form A to crystalline form B | crystalline form (crystalline stability) [3]: Stayed as A | crystalline form (crystalline stability) [4]: Stayed as A | crystalline form (crystalline stability) [5]: Stayed as A | crystalline form (crystalline stability) [6]: Transformed from A to B | crystalline form (crystalline stability) [7]: Transformed from A to B | crystalline form (crystalline stability) [8]: Transformed from A to B

CN(C)C(=O)c1cc2cnc(Nc3ccc(N4CCNCC4)cn3)nc2n1C1CCCC1.O=C(O)CCC(=O)O [Ribociclib succinate in crystalline form B] [butanedioicacid-7-cyclopentyl-N,N-dimethyl-2-[(5-piperazin-1-ylpyridin-2-yl)amino]pyrrolo[2,3-D]pyrimidine-6-carboxamide]
crystalline form (crystalline stability) [1]: maintained its crystalline form and did not transform to other crystalline forms | crystalline form (crystalline stability) [2]: maintained its crystalline form and did not transform to other crystalline forms | crystalline form (crystalline stability) [3]: Stayed as B | crystalline form (crystalline stability) [4]: Stayed as B | crystalline form (crystalline stability) [5]: Stayed as B | crystalline form (crystalline stability) [6]: Stayed as B | crystalline form (crystalline stability) [7]: Stayed as B | crystalline form (crystalline stability) [8]: Stayed as B
